Values joined by “and” are separate entries in the source; they are usually repeats but may differ in a detail not shown here. Equal entries are not always repeated. Where two headings read alike, the source gives them in different places. Bridge positions count the residues as written; N and C are the ends. Square brackets hold non-standard residues; d marks the D form. Peptide text beside a SMILES is read from it. hArg = N=C(N)NCCCC[C@H](N)C(=O)O; Mpa = O=C(O)CCS
Tested on: washed mouse platelets
Test: Clot contraction assay, time-lapse imaging of washed mouse platelets with thrombin, fibrinogen and CaCl2
Assay type: cell-based
[1] = 1 mM EGTA, thrombin 20 mU/mL, fibrinogen 250 μg/mL
[2] = eptifibatide 50 μM, standard conditions
[3] = eptifibatide 100 μM, standard conditions
[4] = eptifibatide 150 μM, standard conditions
[5] = fibrinogen 62 μg/mL, CaCl2 0.5 mM, thrombin 20 mU/mL
[6] = fibrinogen 125 μg/mL, CaCl2 0.5 mM, thrombin 20 mU/mL
[7] = fibrinogen 250 μg/mL, CaCl2 0.5 mM, thrombin 20 mU/mL
[8] = fibrinogen 500 μg/mL, CaCl2 0.5 mM, thrombin 20 mU/mL
[9] = fibrinogen 1000 μg/mL, CaCl2 0.5 mM, thrombin 20 mU/mL

## O=C(O)CN(CCOCCOCCN(CC(=O)O)CC(=O)O)CC(=O)O [EGTA, reference compound]
[1]
  AUC: 7.83 AU
  Average Velocity: 0.51 %/min
  Clot Contraction Extent: 50.72%
  Lag time: 71.67 min
EGTA included
  Effect on average contraction velocity: significantly reduced
In the presence of EGTA
  Detection of the three phases of contraction: none of the three phases was detectible

## N=C(N)NCCCC[C@@H]1NC(=O)CCSSC[C@@H](C(N)=O)NC(=O)[C@@H]2CCCN2C(=O)[C@H](Cc2c[nH]c3ccccc23)NC(=O)[C@H](CC(=O)O)NC(=O)CNC1=O [Eptifibatide, eptifibatide, reference compound] ([Mpa][hArg]GDWPC-NH2; disulfide 1-7)
  AUC: 5.51 AU and 6.76 AU and 6.84 AU
[2]
  Average Velocity: 0.91 %/min
  Clot Contraction Extent: 89.56%
  Lag time: 29.33 min
  PHASE 1 % Contraction: 5.36%
  PHASE 1 Rate 1: 3.93 ×10^−3 %/min
  PHASE 1 t1: 14.33 min
  PHASE 2 % Contraction: 32.14%
  PHASE 2 Rate 2: 1.96 %/min
  PHASE 2 t2: 43.00 min
  PHASE 3 % Contraction: 52.91%
  PHASE 3 Rate 3: 3.83 ×10^−2 %/min
[3]
  Average Velocity: 0.74 %/min
  Clot Contraction Extent: 73.02%
  Lag time: 46.67 min
  PHASE 1 % Contraction: 9.24%
  PHASE 1 Rate 1: 4.00 ×10^−3 %/min
  PHASE 1 t1: 26.00 min
  PHASE 2 % Contraction: 20.75%
  PHASE 2 Rate 2: 1.08 %/min
  PHASE 2 t2: 52.00 min
  PHASE 3 % Contraction: 43.03%
  PHASE 3 Rate 3: 2.20 ×10^−2 %/min
Eptifibatide 150 μM
  Detection of the three phases of contraction: none of the three phases were detectible
[4]
  Average Velocity: 0.67 %/min
  Clot Contraction Extent: 66.08%
  Lag time: 50 min
Eptifibatide 50 to 150 μM
  Effect on average velocity of contraction: dose-dependent decrease
  Effect on extent of contraction: dose-dependent decrease
  Increase in lag time: ~4 fold

## Fibrinogen
[5]
  AUC: 6.66 AU
  Average Velocity: 0.53 %/min
  Clot Contraction Extent: 53.50%
  Lag time: 46.67 min
  PHASE 1 % Contraction: 2.11%
  PHASE 1 Rate 1: 1.50 ×10^−3 %/min
  PHASE 1 t1: 13.00 min
  PHASE 2 % Contraction: 24.32%
  PHASE 2 Rate 2: 1.19 %/min
  PHASE 2 t2: 28.00 min
  PHASE 3 % Contraction: 43.44%
  PHASE 3 Rate 3: 2.90 ×10^−2 %/min
[6]
  AUC: 4.13 AU
  Average Velocity: 1.00 %/min
  Clot Contraction Extent: 98.07%
  Lag time: 26.40 min
  PHASE 1 % Contraction: 2.72%
  PHASE 1 Rate 1: 2.25 ×10^−3 %/min
  PHASE 1 t1: 10.75 min
  PHASE 2 % Contraction: 37.99%
  PHASE 2 Rate 2: 1.66 %/min
  PHASE 2 t2: 30.75 min
  PHASE 3 % Contraction: 57.36%
  PHASE 3 Rate 3: 5.90 ×10^−2 %/min
[7]
  AUC: 4.23 AU
  Average Velocity: 0.98 %/min
  Clot Contraction Extent: 96.87%
  Lag time: 21.67 min
  PHASE 1 % Contraction: 3.26%
  PHASE 1 Rate 1: 2.18 ×10^−3 %/min
  PHASE 1 t1: 10.40 min
  PHASE 2 % Contraction: 26.29%
  PHASE 2 Rate 2: 1.50 %/min
  PHASE 2 t2: 29.40 min
  PHASE 3 % Contraction: 67.28%
  PHASE 3 Rate 3: 4.96 ×10^−2 %/min
[8]
  AUC: 4.89 AU
  Average Velocity: 0.89 %/min
  Clot Contraction Extent: 88.42%
  Lag time: 17.80 min
  PHASE 1 % Contraction: 3.48%
  PHASE 1 Rate 1: 2.78 ×10^−3 %/min
  PHASE 1 t1: 9.40 min
  PHASE 2 % Contraction: 19.02%
  PHASE 2 Rate 2: 1.10 %/min
  PHASE 2 t2: 26.00 min
  PHASE 3 % Contraction: 65.92%
  PHASE 3 Rate 3: 3.32 ×10^−2 %/min
Fibrinogen 1,000 μg/mL
  Efficiency of contraction: too high for efficient contraction
[9]
  AUC: 6.18 AU
  Average Velocity: 0.69 %/min
  Clot Contraction Extent: 68.91%
  Lag time: 39.80 min
  PHASE 1 % Contraction: 4.20%
  PHASE 1 Rate 1: 3.03 ×10^−3 %/min
  PHASE 1 t1: 11.80 min
  PHASE 2 % Contraction: 10.11%
  PHASE 2 Rate 2: 0.70 %/min
  PHASE 2 t2: 25.40 min
  PHASE 3 % Contraction: 54.53%
  PHASE 3 Rate 3: 1.92 ×10^−2 %/min
Fibrinogen 62.5 to 1,000 μg/mL
  Fibrinogen concentrations with highest extent and average velocity of contraction: highest at 125 and 250

— patent US20240044922A1, “DEVICE AND METHODS FOR MEASURING PLATELET-FIBRIN CLOT CONTRACTION KINETICS” (University of Kentucky Research Foundation, priority 2022, published 2024)
